Our source for the AC50 and EC50 values is ChEMBL document CHEMBL1201862, “PubChem BioAssay data set” (2004).

Active and inactive are the calls of the source.

The target in one test is Cytochrome P450 3A4 (Homo sapiens, UniProt P08684).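 Also: CYP3A4 tested as one member of a cytochrome P450 panel screen.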
The target of test [1] is T1, RNA-binding protein pos-1 (Caenorhabditis elegans, UniProt G5EF15).
T1 sequence (G5EF15 whole entry): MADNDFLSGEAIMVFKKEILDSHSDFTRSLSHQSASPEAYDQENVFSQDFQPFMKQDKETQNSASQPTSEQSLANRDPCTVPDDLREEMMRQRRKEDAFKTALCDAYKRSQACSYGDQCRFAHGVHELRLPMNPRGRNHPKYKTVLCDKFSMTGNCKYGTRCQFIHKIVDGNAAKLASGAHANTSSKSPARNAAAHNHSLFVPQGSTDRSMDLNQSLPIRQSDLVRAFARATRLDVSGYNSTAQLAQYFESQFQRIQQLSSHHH
Briefly: inhibitors of POS-1/mex-3 RNA binding, dose response, biochemical, fluorescence polarization (AID 1964).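 Also: purified POS-1 fused to maltose binding protein made in E. coli; potency of compounds blocking POS-1 binding to fluorescent RNA.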 In general terms: Fluorescence polarisation rises when a labelled molecule tumbles more slowly, as on binding a larger partner.

The target of test [2] is T2, Zinc finger protein mex-5 (Caenorhabditis elegans, UniProt Q9XUB2).
T2 sequence (Q9XUB2 whole entry): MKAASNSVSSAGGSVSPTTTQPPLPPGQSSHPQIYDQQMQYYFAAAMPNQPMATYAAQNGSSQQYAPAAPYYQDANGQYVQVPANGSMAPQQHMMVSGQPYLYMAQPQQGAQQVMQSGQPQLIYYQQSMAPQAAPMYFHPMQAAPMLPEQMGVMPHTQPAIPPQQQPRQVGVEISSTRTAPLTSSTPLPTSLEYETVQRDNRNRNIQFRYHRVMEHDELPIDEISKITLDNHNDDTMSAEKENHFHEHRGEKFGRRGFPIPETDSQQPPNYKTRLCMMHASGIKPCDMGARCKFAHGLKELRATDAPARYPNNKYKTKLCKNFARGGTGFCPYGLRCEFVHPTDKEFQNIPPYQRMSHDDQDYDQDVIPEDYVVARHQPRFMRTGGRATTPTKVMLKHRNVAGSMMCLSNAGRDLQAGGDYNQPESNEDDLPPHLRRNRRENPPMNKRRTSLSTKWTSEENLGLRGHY
Briefly: MEX-5/TCR-2 RNA interaction inhibitors, dose response, biochemical, C. elegans, fluorescence polarization (AID 1960).

Another test deals with Cytochrome P450 2C9 (Homo sapiens, UniProt P11712).
Test [3] in a line: inhibitors of firefly luciferase expression or activity, dose response, H4 neuroglioma cells, luminescence (AID 1990). Type of test: functional, cell-based.
Test [4] in a line: Luminescence Cell-Based Dose Response HTS to Identify Inhibitors of 5'UTR Stem-Loop Driven Prion Protein mRNA Translation in H4 Neuroglioblastoma Cells. [Related pubchem assays: 1827 (Project Summary), 1813 (Primary HTS)]. Type of test: functional.
Test [5] can be described thus: inhibitors of SNCA 5'UTR-driven reporter translation, confirmation, H4 neuroglioma cells, luminescence (AID 1988). Type of test: functional, cell-based.
A short description of test [6]: C. albicans growth with fluconazole, confirmation, fluorescence, retest (AID 2467). Type of test: functional, cell-based.
Test [7] can be described thus: NIH-3T3 fibroblast cytotoxicity, dose response, cytotoxicity control, cell-based, fluorescence, Alamar Blue, secondary assay (AID 2327).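 Also: NIH-3T3 mouse fibroblasts cultured with fluconazole at 8 µg/mL.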 Type of test: functional. (The colour change of resazurin is a common sign of viable cells or microbes.)
Test [8] is described as follows: Luminescence Cell-Based Dose Response HTS to Identify Activators of Luciferase Translation or Activity in H4 […] Cells. [Related pubchem assays: 1829 (Project Summary), 1814 (Primary HTS)]. Type of test: functional.
In another test the test system is H4. Description: Luminescence Cell-Based Dose Response HTS to Identify Activators of 5'UTR Stem-Loop Driven Prion Protein mRNA Translation in H4 Neuroglioblastoma Cells. [Related pubchem assays: 1829 (Project Summary), 1814 (Primary HTS)]. Type of test: functional. The note with it: Homo sapiens.
A short description of test [9]: cytotoxicity toward NIH3T3 fibroblasts, dose response, counter-screen, cell-based, ATP luminescence, mouse fibroblasts (AID 2010).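 Also: cells exposed to compound for about 90 hours before reading.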 In kind it is functional.
Test [10] is described as follows: inhibitors of intracellular T. cruzi replication, confirmation, NIH3T3 host cells, beta-gal luminescence (AID 2044).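 Also: intracellular parasites grown in NIH/3T3 mouse fibroblasts as host cells; luminescent beta-galactosidase reporter signal from transgenic T. cruzi replicating inside host cells; inhibitors lower the luminescence signal.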 In kind it is functional, cell-based.
Test [11] can be described thus: growth suppression of PTEN-null colon cells, dose response, cell-based, HCT116 PTEN knockout (AID 1047).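 Also: HCT116 colon tumor cells with PTEN knocked out; cells exposed to compound for 60 hours before readout; potency for loss of cell viability measured by luminescence.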 In kind it is functional.
A short description of test [12]: Luminescence Cell-Based Dose Retest to Confirm Inhibitors of Cancer Stem Cells. [Related pubchem assays (depositor defined):AID2717, AID2721]. Type of test: functional. Particulars: Homo sapiens.
Test [13] can be described thus: growth suppression of beta-catenin-knockout colon cells, dose response, cell-based, HCT116, human colon tumor (AID 1045).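 Also: HCT116 colon tumor cells with beta catenin knocked out; cells exposed to compound for 60 hours.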 In kind it is functional.
Another test has as its target Cytochrome P450 2C19 (Homo sapiens, UniProt P33261). Description: Cytochrome panel assay with activity outcomes. Panel member name: p450-cyp2c19 Compounds with AC50 equal or less than 10 uM are considered active. Type of test: functional. Particulars: read-out: AC50.

Cytochrome P450 2C9, sequence (P11712 whole entry): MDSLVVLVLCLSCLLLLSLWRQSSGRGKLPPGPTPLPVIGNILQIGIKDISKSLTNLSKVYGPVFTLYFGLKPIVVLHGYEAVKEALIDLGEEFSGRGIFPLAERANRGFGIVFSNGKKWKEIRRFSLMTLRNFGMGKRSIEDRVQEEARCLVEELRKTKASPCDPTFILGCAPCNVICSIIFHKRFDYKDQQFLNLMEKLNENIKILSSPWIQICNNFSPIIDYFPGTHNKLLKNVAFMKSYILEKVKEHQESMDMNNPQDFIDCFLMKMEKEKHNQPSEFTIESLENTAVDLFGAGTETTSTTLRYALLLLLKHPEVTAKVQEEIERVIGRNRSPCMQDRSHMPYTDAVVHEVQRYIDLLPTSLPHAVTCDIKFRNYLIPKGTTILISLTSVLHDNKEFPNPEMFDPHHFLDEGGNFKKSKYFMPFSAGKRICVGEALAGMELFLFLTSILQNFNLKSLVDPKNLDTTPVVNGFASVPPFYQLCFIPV
Cytochrome P450 3A4, sequence (P08684 whole entry): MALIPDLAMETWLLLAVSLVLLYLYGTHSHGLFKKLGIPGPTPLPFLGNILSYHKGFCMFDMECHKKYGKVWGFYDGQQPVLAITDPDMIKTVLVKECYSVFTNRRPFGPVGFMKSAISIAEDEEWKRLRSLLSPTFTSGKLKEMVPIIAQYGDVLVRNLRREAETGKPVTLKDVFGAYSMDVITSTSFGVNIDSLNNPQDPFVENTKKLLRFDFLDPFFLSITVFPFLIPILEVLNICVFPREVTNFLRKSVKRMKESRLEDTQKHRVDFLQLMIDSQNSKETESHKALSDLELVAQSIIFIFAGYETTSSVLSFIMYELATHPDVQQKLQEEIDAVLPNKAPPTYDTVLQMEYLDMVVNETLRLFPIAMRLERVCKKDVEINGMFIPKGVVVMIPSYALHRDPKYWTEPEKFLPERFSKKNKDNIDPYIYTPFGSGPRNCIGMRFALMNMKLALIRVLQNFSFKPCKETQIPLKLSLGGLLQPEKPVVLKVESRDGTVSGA
Cytochrome P450 2C19, sequence (P33261 whole entry): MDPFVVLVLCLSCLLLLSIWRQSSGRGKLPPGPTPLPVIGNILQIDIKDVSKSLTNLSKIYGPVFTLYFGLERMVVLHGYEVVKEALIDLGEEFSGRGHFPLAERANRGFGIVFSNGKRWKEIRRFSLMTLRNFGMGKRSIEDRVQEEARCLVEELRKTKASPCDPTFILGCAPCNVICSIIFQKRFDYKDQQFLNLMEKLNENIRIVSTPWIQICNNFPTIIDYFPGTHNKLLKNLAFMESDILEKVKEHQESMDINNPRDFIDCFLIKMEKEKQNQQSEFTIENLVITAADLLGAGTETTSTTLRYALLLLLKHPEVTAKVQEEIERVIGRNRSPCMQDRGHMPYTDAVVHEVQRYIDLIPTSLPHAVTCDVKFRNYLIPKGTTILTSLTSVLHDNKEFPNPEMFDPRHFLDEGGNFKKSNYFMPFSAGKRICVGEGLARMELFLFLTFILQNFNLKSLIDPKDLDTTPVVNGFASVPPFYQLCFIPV

One may read the AC50 as the concentration at which the activity in the assay is half-maximal. In the case of `Cc1ccc(OCCCC(=O)NCc2ccco2)cc1`, the AC50 on Cytochrome P450 3A4 was 17.8 µM (inconclusive).

The term EC50 denotes the concentration giving half of the maximal effect. For `Cc1cc2c3c(c1)C1(C(=O)N3C(C)(C)CC2C)C(C#N)=C(N)OC2=C1C(=O)CC(C)(C)C2` (stereo not given), the 50% effective concentration (EC50) in test [1] and in [2] was > 300 µM (not active) in each case.

As for `O=c1c(-c2cccs2)nc2cnc(N3CCOCC3)nc2n1CCc1ccccc1`, the AC50 on Cytochrome P450 3A4 is 12.6 µM (inconclusive).

With `Cc1ccc(CS(=O)(=O)CCC(=O)NCCCOC(C)C)cc1`, the AC50 at Cytochrome P450 3A4 is 35.5 µM (inconclusive).

Regarding `COc1cccc(Nc2ncc3nc(C)c(=O)n(CCc4ccccc4)c3n2)c1`, the AC50 at Cytochrome P450 2C9 was 3.16 µM (inconclusive).

As to `CCOc1ccc(-n2c([S-])c(C(=O)Nc3ccc(S(=O)(=O)N4CCOCC4)cc3)[n+]3cc(C(N)=O)ccc23)cc1`, the figures for the 50% effective concentration (EC50) in test [3], in test [4] and in test [5] were 24.1 µM (active), > 120 µM (not active) and 17.5 µM (active), respectively.

For `CN1C[C@H](CO)C=C2c3cccc4[nH]cc(c34)C[C@@H]21`, the AC50 on Cytochrome P450 3A4 was 12.6 µM (inconclusive).

`CC1CCCN(C(=O)c2cccc(S(=O)(=O)Nc3cc(C(F)(F)F)ccc3Cl)c2)C1` (stereo not given): the EC50 in [6] is > 38 µM (not active); in test [7], > 150 µM (inactive).

In the case of `C1CNCCOCCNCCN1`, the AC50 on Cytochrome P450 2C9 is 17.8 µM (inconclusive).

For the compound `CSCC(C)N1CCC(n2nccc2NC(=O)CCCc2ccccc2)CC1` (stereo not given), the EC50 was 6.99 µM (active) in test [1] and 8.67 µM (active) in [2].

With `CCOC(=O)c1sc(Nc2nc3c(OC)cccc3s2)nc1C`, the 50% effective concentration (EC50) in test [6] is 2.8 µM (active); in test [7], 48.9 µM (active).

For `COc1ccc(NC(=O)c2cccs2)c([N+](=O)[O-])c1`, at Cytochrome P450 2C9, the AC50 was 7.94 µM (inconclusive).

Regarding `CCCn1cnc2cc(NCc3cccs3)ccc21`, the EC50 in test [8] is 11.8 µM (active); in the test with H4, 13.4 µM (active).

With `Nc1ccc(S(=O)(=O)NNC(=O)C(=O)NNc2ccccc2)cc1`, the EC50 was > 38 µM (not active) in [6], 1.96 µM (active) in test [9], 0.75 µM (active) in test [10] and 1.48 µM (active) in [7].

Consider `COc1ccc(Oc2c(Cl)cnn(-c3ccc(Cl)c(Cl)c3)c2=O)cc1`, for which the EC50 in test [11] is 91.6 µM (active); in test [3] it was 15 µM (active); in test [4] it was 13.4 µM (active); in test [5], 8.46 µM (active); in test [13] it was 10.8 µM (active). Moreover, in test [12], the AC50 is 4.57 µM (active).

Turning to `CC(C)=NO[C@@H](C)c1cc(-c2c(C)cc(C)cc2C)no1`, the half-maximal activity concentration (AC50) on Cytochrome P450 3A4 was 3.16 µM (inconclusive); on Cytochrome P450 2C19 it was 0.631 µM (inconclusive).

Turning to `NS(=O)(=O)c1cc(C(=O)O)c(O)c2ccccc12`, the concentration at half-maximal activity (AC50) at Cytochrome P450 2C9 is 3.98 µM (inconclusive).

With `O=C(c1cnn2c(C(F)(F)F)cc(-c3ccccc3)nc12)N1CCCCC1c1cccnc1` (stereo not given), the EC50 in test [3] is > 120 µM (not active); in test [4] it was 75.7 µM (active); in [5] it was > 120 µM (not active); in test [9], > 60 µM (not active); in [10], 0.506 µM (active).

For `CC(C)NC(=O)N1CCCC2(CCN(C(=O)c3cccn3C)CC2)C1`, the AC50 on Cytochrome P450 3A4 was 25.1 µM (inconclusive).

For `COc1cccc(CN2C(=O)C3(C(C#N)=C(N)OC4=C3C(=O)CCC4)c3ccccc32)c1` (stereo not given), the EC50 in test [1] was > 300 µM (not active); in [3], 19.2 µM (active); in [4], > 120 µM (not active); in test [5], 20.1 µM (active); in test [6], 1.24 µM (active); in test [7] it was > 160 µM (inconclusive). The half-maximal effective concentration (EC50) in test [2] is > 300 µM (not active).

For `O=C(NNC(=O)c1cnccn1)c1cccc([N+](=O)[O-])c1`, the EC50 in test [1] was 22.1 µM (active); in test [2], 1.03 µM (active).

Regarding `Cc1cc(C)nc(NC(=O)c2cccc([N+](=O)[O-])c2C)n1`, at Cytochrome P450 2C9, the AC50 is 11.2 µM (inconclusive).

For the compound `CC(C)(C)c1nn(-c2ccccc2)c2[nH]c(=O)c(CNCc3ccco3)cc12`, the concentration for a half-maximal effect (EC50) in [1] and in [2] was > 300 µM (not active) in each case.

`CCSc1nnc(-c2cccnc2)n1-c1ccc(C)c(Cl)c1`: the EC50 in [3], in [4] and in test [5] was > 120 µM (not active) each time.

For `Cc1cccn2c(O)c(C(=O)NC3CC(C)CC(C)(C)C3)c(=O)nc12` (stereo not given), the EC50 was 13.1 µM (active) in test [3], 2.59 µM (active) in test [4] and 16.3 µM (active) in test [5].

As for `C=CCN1C(=O)S/C(=C\c2ccc(N3CCOCC3)cc2C)C1=O`, the concentration giving a half-maximal response (EC50) in test [1] is 40.8 µM (active); in test [2] it was 61.3 µM (inconclusive).

`O=C(CCC(=O)Nc1ccccc1Cl)NNS(=O)(=O)c1ccc(Cl)cc1`: the values for the EC50 in test [6] and in test [7] were > 38 µM (not active) and > 160 µM (inactive), respectively.

Turning to `CC(=O)Nc1ccc(S(=O)(=O)NCc2nc(-c3cccc(C)c3)no2)cc1`, the half-maximal effective concentration (EC50) in test [1] is 85.6 µM (active); in [2], > 300 µM (not active).

Consider `CCCCC(=O)Nc1nc(C)c(-c2csc(Nc3cc(OC)ccc3OC)n2)s1`, for which the AC50 in test [12] is 1.35 µM (active). Besides, the EC50 in test [3] is 12.2 µM (active); in [4], 18.2 µM (active); in test [5] it was 7.93 µM (active).

Regarding `CCCOc1cccc(C(=O)Nc2cccnc2)c1`, the half-maximal effective concentration (EC50) was > 38 µM (not active) in test [6] and > 150 µM (inactive) in test [7].

With `Cc1cc(C(F)(F)F)n2nc(-c3cnn(C)c3C(F)(F)F)cc2n1`, the results for the AC50 on Cytochrome P450 3A4 and at Cytochrome P450 2C9 were 17.8 µM (inconclusive) and 7.08 µM (inconclusive), respectively.

`O=C(Nc1ccc(Br)cn1)c1ccc2nccnc2c1`: the concentration giving a half-maximal response (EC50) in test [1] and in [2] was > 300 µM (not active) in each case.

Regarding `COc1ccc2c(c1)CCN=C2Cc1ccc(OC)c(OC)c1`, the EC50 in [3] is > 120 µM (not active); in test [4] it was > 120 µM (not active); in test [5] it was > 120 µM (not active); in [6], > 38 µM (not active); in [7], 66.8 µM (active).

Turning to `N#CCCn1c(=O)c(-c2cccs2)nc2cnc(Oc3cccc(Cl)c3)nc21`, the AC50 on Cytochrome P450 3A4 was 7.94 µM (inconclusive); on Cytochrome P450 2C9, 6.31 µM (inconclusive).

With `Cn1cccc1CNC(=O)Nc1ccc(Cl)c(Cl)c1`, the EC50 in [8] is 1.66 µM (active); in the test on H4 it was > 120 µM (not active).

As to `Cc1c(Cl)cccc1N1C(=O)NC(=O)/C(=C\c2cc(C)n(-c3cccc(C(=O)O)c3C)c2C)C1=O`, the EC50 in test [1] and in test [2] was > 300 µM (not active) in each case.

For the compound `Cc1cc(C)cc(N(C(=O)c2ccccn2)C(C(=O)NC2CCCCC2)c2cccs2)c1` (stereo not given), the AC50 on Cytochrome P450 2C19 was 17.8 µM (inconclusive); on Cytochrome P450 2C9, 15.8 µM (inconclusive).

For `O=C(Cn1nnc2ccccc21)N/N=C\C=C\c1ccccc1`, the AC50 is 14.1 µM (inconclusive) on Cytochrome P450 2C19 and 12.6 µM (inconclusive) on Cytochrome P450 2C9.

For `CS(=O)(=O)c1ccc(-c2cc(Br)sc2-c2ccc(F)cc2)cc1` [DUP-697], the AC50 at Cytochrome P450 3A4 is 20 µM (inconclusive).

On to `Nc1n[nH]c2nc3ccccc3nc12` [QUINOXALINE1], for which the AC50 on Cytochrome P450 3A4 is 0.126 µM (inconclusive).
